The values below are quoted from earlier work in article PMC7982506 (Acta Pharmaceutica Sinica. B, 2020).

pEC50, pIC50: −log10 of the molar value.

The target in one data set is T1, SHP2-PTP (Homo sapiens, UniProt Q06124).
T1 sequence (Q06124 237-535): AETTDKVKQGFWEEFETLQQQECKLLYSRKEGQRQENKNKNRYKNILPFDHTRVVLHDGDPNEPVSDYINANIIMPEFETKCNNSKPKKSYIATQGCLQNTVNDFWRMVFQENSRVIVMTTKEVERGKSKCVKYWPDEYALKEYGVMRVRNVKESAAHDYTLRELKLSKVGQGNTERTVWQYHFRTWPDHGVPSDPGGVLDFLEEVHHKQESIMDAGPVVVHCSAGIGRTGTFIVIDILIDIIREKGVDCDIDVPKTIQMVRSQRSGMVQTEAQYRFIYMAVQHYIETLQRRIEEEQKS
Particulars: read-out: IC50 reported previously.

The test system of the next data set is p-ERK. Particulars: versus SHP099.
A further data set concerns cell growth. Conditions: versus SHP099.
For another data set, the target named is T2, SHP2-WT (Homo sapiens, UniProt Q06124).
T2 sequence (Q06124 1-535): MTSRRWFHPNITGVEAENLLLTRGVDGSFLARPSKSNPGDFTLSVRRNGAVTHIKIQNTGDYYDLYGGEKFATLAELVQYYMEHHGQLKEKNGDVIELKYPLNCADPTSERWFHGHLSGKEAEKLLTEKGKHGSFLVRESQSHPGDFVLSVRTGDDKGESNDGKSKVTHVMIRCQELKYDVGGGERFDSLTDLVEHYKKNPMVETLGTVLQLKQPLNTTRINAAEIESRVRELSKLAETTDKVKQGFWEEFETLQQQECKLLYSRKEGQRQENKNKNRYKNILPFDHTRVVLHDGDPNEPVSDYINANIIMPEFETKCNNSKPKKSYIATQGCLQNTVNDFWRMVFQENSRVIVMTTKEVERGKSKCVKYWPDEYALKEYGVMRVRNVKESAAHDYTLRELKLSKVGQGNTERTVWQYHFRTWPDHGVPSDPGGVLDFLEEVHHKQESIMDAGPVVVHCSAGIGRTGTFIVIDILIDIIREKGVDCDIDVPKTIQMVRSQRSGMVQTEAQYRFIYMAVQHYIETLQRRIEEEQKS
Particulars: read-out: EC50 of p-IRS1 peptide for SHP2-WT, previously reported.

A word on the pIC50: it is the IC50 on a negative log10 scale, so that one unit is a factor of ten. `[Na+].[Na+].[Na+].[O]=[V]([O-])([O-])[O-]` [Na3VO4]: the pIC50 at SHP2-PTP is 5.00.

Consider `Cc1ncsc1-c1ccc([C@H](C)NC(=O)[C@@H]2C[C@@H](O)CN2C(=O)[C@@H](NC(=O)CCCCCCCCN2CCN(C(=O)CCC(=O)Nc3cccc(Sc4ncc(N5CCC(C)(N)CC5)nc4N)c3Cl)CC2)C(C)(C)C)cc1` [SHP2-D26], for which, in the data set with p-ERK, the “fold more potent than SHP099 in inhibition of p-ERK” value was 30 fold. Also, the “fold more potent than SHP099 in inhibition of cell growth” value in the data set on cell growth is 30 fold.

Broadly, the pEC50 is −log10 of the EC50, conventionally taken in molar units. For “H2N-LN(pY)IDLDLV(dPEG8)LST(pY)ASINFQK-amide [p-IRS1 peptide]”, the pEC50 on SHP2-WT is 6.60.
